# From US20190134115A1, “Activated Lactobacillus Reuteri Strains for Selective Pathogen Inhibition in a Human Microbial Community” (BioGaia AB, priority 2016, published 2019)
# Where two headings read alike, the source gives them in different places.
# Experiments:
# L. reuteri 6475 = experiment: Antibiotic susceptibility testing, broth microdilution MIC; assay type: cell-based; details: read-out: Minimum inhibitory concentration
# Procedure: (§1) Antibiotic Susceptibility Testing. Susceptibility of Lactobacillus spp. to antibiotics was determined using standard broth microdilution procedures (24). […] Plates were incubated anaerobically at 37° C. for 24 h. Optical density measurements (600 nm) were recorded using a Synergy™ H1 Hybrid Multi-Mode Microplate Reader (BioTek Instruments, Inc, Winooski, Vt.). Results were compared to a growth control (lactobacilli only), and the minimum inhibitory concentration (MIC) endpoint was the concentration of antibiotic where ≥90% reduction in growth was observed. Significance was determined using student's t test with equal variance.
# L. gasseri LG-3 = experiment: as above; assay type: cell-based; details: for MIC: Lactobacillus gasseri, read-out: Minimum inhibitory concentration
# Procedure: as §1
# L. reuteri 17938 = experiment: as above; assay type: cell-based; details: read-out: Minimum inhibitory concentration
# Procedure: as §1
# C. difficile R20291 = details: C. difficile R20291, CDI patient stool; cited from earlier work
# [1] = test system: C. difficile-associated diarrheal isolates; details: cited from earlier work
# L. rhamnosus LR-34 = experiment: Antibiotic susceptibility testing, broth microdilution MIC; assay type: cell-based; details: for Minimum inhibitory concentration / MIC: MRS, anaerobic, 24 h, ≥90% reduction in growth; for MIC: Lacticaseibacillus rhamnosus
# Procedure: as §1, with “Results were compared to a growth control (lactobacilli only), and the minimum inhibitory concentration (MIC) endpoint was the concentration of antibiotic where ≥90% reduction in growth was observed.” left out
# L. casei LC-39 = experiment: as above; assay type: cell-based; details: for Minimum inhibitory concentration / MIC: MRS, anaerobic, 24 h, ≥90% reduction in growth; for MIC: Lacticaseibacillus casei
# Procedure: as §1, with “Results were compared to a growth control (lactobacilli only), and the minimum inhibitory concentration (MIC) endpoint was the concentration of antibiotic where ≥90% reduction in growth was observed.” left out
# C. difficile CD2015 = experiment: C. difficile invasion of antibiotic-treated human fecal mini-bioreactor arrays (MBRA), qPCR; assay type: cell-based; details: clindamycin-treated MBRA, increase not statistically significant
# Procedure: Mini-bioreactor array (MBRA) preparation, operation and sample collection. Effects of reuterin on C. difficile growth in a human fecal microbial community were tested in MBRAs. Replicate MBRAs (twelve independent 15-mL reactors) and bioreactor medium (BRM2) were prepared as previously described (26). Reactors were inoculated with an anaerobic preparation of a 25% fecal slurry from an anonymous healthy donor (5% w/v final concentration) and were operated in an anaerobic chamber with 5% H2, 5% CO2, 90% N2 atmosphere. After 16 h of outgrowth in batch culture mode, continuous-flow cultivation was initiated at a flow rate of 0.94 ml/h (16 h retention time). After 36 h of flow, reactor communities were treated twice daily with clindamycin (500 mg/L final concentration) for 4.5 days. Reactors were transitioned to fresh medium on day 4 of clindamycin treatment, with 6 reactors receiving standard BRM2 medium and 6 reactors receiving BRM2 supplemented with glycerol (10% v/v final concentration). […]
# Samples (1 ml) were collected from each MBRA as described (27) prior to the initiation of continuous flow and then daily through the duration of the experiment. […] Microbial community and metabolite analysis, and quantification of C. difficile levels by quantitative PCR (qPCR) were performed as described below. […]
# Quantification of C. difficile by qPCR. […]
# [2] = Limosilactobacillus reuteri, 6475, 24 h
# [3] = LG3, L. gasseri LG-3, MRS, anaerobic, 24 h, ≥90% reduction in growth
# [4] = Limosilactobacillus reuteri, L. reuteri 17938, MRS, anaerobic, 24 h, ≥90% reduction in growth
# [5] = LR34, L. rhamnosus LR-34, read-out: Minimum inhibitory concentration
# [6] = LC39, L. casei LC-39, read-out: Minimum inhibitory concentration
"MIC (L. reuteri 6475; Limosilactobacillus reuteri, L. reuteri 6475, MRS, anaerobic, 24 h, ≥90% reduction in growth) [µg/mL]","MIC relative to the MIC90 for C. difficile (L. rhamnosus LR-34; L. rhamnosus LR-34, fold greater) [fold]","MIC relative to the MIC90 for C. difficile (L. casei LC-39; L. casei LC-39, fold greater) [fold]",Compound,MIC (L. reuteri 6475; [2]) [µg/mL],"Minimum inhibitory concentration (L. gasseri LG-3; L. gasseri LG-3, MRS, anaerobic, 24 h, ≥90% reduction in growth) [µg/mL]",MIC (L. gasseri LG-3; [3]) [µg/mL],MIC (L. reuteri 17938; [4]) [µg/mL],Minimum inhibitory concentration (C. difficile R20291) [µg/mL],MIC90 [1] [µg/mL],Minimum inhibitory concentration (L. rhamnosus LR-34; L. rhamnosus LR-34) [µg/mL],MIC (L. rhamnosus LR-34; [5]) [µg/mL],Minimum inhibitory concentration (L. casei LC-39; L. casei LC-39) [µg/mL],MIC (L. casei LC-39; [6]) [µg/mL],"MIC (L. gasseri LG-3; LG3, 24 h) [µg/mL]","MIC (L. reuteri 17938; Limosilactobacillus reuteri, 17938, 24 h) [µg/mL]","MIC (L. rhamnosus LR-34; LR34, 24 h, read-out: Minimum inhibitory concentration, L. rhamnosus LR-34) [µg/mL]","MIC (L. casei LC-39; LC39, 24 h, read-out: Minimum inhibitory concentration, L. casei LC-39) [µg/mL]","C. difficile concentrations, fold greater than controls (C. difficile CD2015) [fold]"
,,,"Cc1ncc([N+](=O)[O-])n1CCO [Metronidazole, metronidazole]",128,>256,> 256,> 256,2,2,>256,> 256,>256,> 256,,,,,
,,,"CN[C@H](CC(C)C)C(=O)N[C@H]1C(=O)N[C@@H](CC(N)=O)C(=O)N[C@H]2C(=O)N[C@H]3C(=O)N[C@H](C(=O)N[C@H](C(=O)O)c4cc(O)cc(O)c4-c4cc3ccc4O)[C@H](O)c3ccc(c(Cl)c3)Oc3cc2cc(c3O[C@@H]2O[C@H](CO)[C@@H](O)[C@H](O)[C@H]2O[C@H]2C[C@](C)(N)[C@H](O)[C@H](C)O2)Oc2ccc(cc2Cl)[C@H]1O [Vancomycin, vancomycin]",256,,,,4,4,256,,256,,1,256,> 256,> 256,
,,,OCC(O)CO [glycerol],,,,,,,,,,,,,,,~10
> 32,4,4,"CCc1c(Cl)c(O)c(Cl)c(O)c1C(=O)O[C@H]1[C@H](O)[C@H](OC)[C@H](OC/C2=C\C=C\C[C@H](O)/C(C)=C/[C@H](CC)[C@@H](O[C@@H]3OC(C)(C)[C@@H](OC(=O)C(C)C)[C@H](O)[C@@H]3O)/C(C)=C/C(C)=C/C[C@@H]([C@@H](C)O)OC2=O)O[C@@H]1C [Fidaxomycin, fidaxomicin]",,,2,> 32,0.5,0.5,,2,,2,,,,,
